From the NIST ThermoML archive (doi:10.1016/j.jct.2019.02.011)

Test: xn = mol fraction of the nth substance listed
Conditions: Liquid, Vibrating tube method

COC(=O)OC [dimethyl carbonate] + CCO
mass density [kg/m3]
Conditions | 100 kPa | 5000 kPa | 10000 kPa | 15000 kPa | 20000 kPa | 25000 kPa | 30000 kPa | 35000 kPa | 40000 kPa
298.15 K, x1 = 0.0252 | – | – | – | – | – | 814.77 | 818.23 | 821.35 | 824.85
298.15 K, x1 = 0.0506 | – | – | – | – | – | 824.39 | 827.85 | 831.03 | 834.55
298.15 K, x1 = 0.0757 | – | – | – | – | – | 833.72 | 837.24 | 840.42 | 843.95
298.15 K, x1 = 0.1003 | – | – | – | – | – | 842.57 | 846.09 | 849.38 | 852.92
298.15 K, x1 = 0.1508 | – | – | – | – | – | 860.52 | 864.11 | 867.41 | 871.01
298.15 K, x1 = 0.2 | – | – | – | – | – | 877.33 | 880.97 | 884.34 | 887.93
298.15 K, x1 = 0.2547 | – | – | – | – | – | 895.44 | 899.14 | 902.52 | 906.18
298.15 K, x1 = 0.3002 | – | – | – | – | – | 910.03 | 913.74 | 917.13 | 920.8
298.15 K, x1 = 0.3498 | – | – | – | – | – | 925.47 | 929.2 | 932.65 | 936.29
298.15 K, x1 = 0.4 | – | – | – | – | – | 940.64 | 944.38 | 947.84 | 951.52
298.15 K, x1 = 0.449 | – | – | – | – | – | 954.89 | 958.68 | 962.16 | 965.81
298.15 K, x1 = 0.4996 | – | – | – | – | – | 969.11 | 972.91 | 976.39 | 980.05
298.15 K, x1 = 0.5507 | – | – | – | – | 979.03 | 982.99 | 986.8 | 990.35 | 994.01
298.15 K, x1 = 0.6005 | – | – | – | – | 992.03 | 996 | 999.82 | 1003.37 | 1006.99
298.15 K, x1 = 0.6455 | – | – | – | – | 1003.31 | 1007.29 | 1011.17 | 1014.73 | 1018.41
298.15 K, x1 = 0.6931 | – | – | – | – | 1014.9 | 1018.88 | 1022.77 | 1026.34 | 1030.03
298.15 K, x1 = 0.7502 | – | – | – | – | 1028.23 | 1032.23 | 1036.12 | 1039.75 | 1043.4
298.15 K, x1 = 0.8009 | – | – | – | – | 1039.69 | 1043.7 | 1047.6 | 1051.24 | 1054.89
298.15 K, x1 = 0.8505 | – | – | – | – | 1050.49 | 1054.48 | 1058.39 | 1062.04 | 1065.71
298.15 K, x1 = 0.9008 | – | – | – | – | 1061.05 | 1065.07 | 1068.99 | 1072.64 | 1076.29
298.15 K, x1 = 0.9255 | – | – | – | – | 1066.12 | 1070.15 | 1074.07 | 1077.73 | 1081.38
298.15 K, x1 = 0.9477 | – | – | – | – | 1070.6 | 1074.63 | 1078.55 | 1082.21 | 1085.85
298.15 K, x1 = 0.9735 | – | – | – | – | 1075.75 | 1079.76 | 1083.68 | 1087.3 | 1090.94
298.15 K, x1 = 1 | – | – | – | – | 1080.9 | 1084.89 | 1088.82 | 1092.44 | 1096.04
303.15 K, x1 = 0.0252 | 790.52 | 794.85 | 799.09 | 803.19 | 807.07 | 810.85 | 814.45 | – | –
303.15 K, x1 = 0.0506 | 799.8 | 804.24 | 808.54 | 812.68 | 816.57 | 820.4 | 824.05 | – | –
303.15 K, x1 = 0.0757 | 808.95 | 813.38 | 817.69 | 821.83 | 825.78 | 829.67 | 833.32 | – | –
303.15 K, x1 = 0.1003 | 817.66 | 822.15 | 826.46 | 830.66 | 834.61 | 838.5 | 842.15 | – | –
303.15 K, x1 = 0.1508 | 835.2 | 839.75 | 844.12 | 848.37 | 852.39 | 856.28 | 859.99 | – | –
303.15 K, x1 = 0.2 | 851.75 | 856.29 | 860.68 | 864.98 | 869.06 | 873.01 | 876.77 | – | –
303.15 K, x1 = 0.2547 | 869.58 | 874.18 | 878.59 | 882.88 | 886.98 | 890.99 | 894.76 | – | –
303.15 K, x1 = 0.3002 | 883.92 | 888.57 | 893.03 | 897.33 | 901.44 | 905.46 | 909.28 | – | –
303.15 K, x1 = 0.3498 | 899.15 | 903.81 | 908.28 | 912.64 | 916.76 | 920.83 | 924.6 | – | –
303.15 K, x1 = 0.4 | 914.01 | 918.72 | 923.21 | 927.61 | 931.75 | 935.83 | 939.65 | – | –
303.15 K, x1 = 0.449 | 928.1 | 932.82 | 937.32 | 941.72 | 945.87 | 949.95 | 953.78 | – | –
303.15 K, x1 = 0.4996 | 942.11 | 946.83 | 951.34 | 955.75 | 959.95 | 964.05 | 967.88 | – | –
303.15 K, x1 = 0.5507 | 955.78 | 960.51 | 965.03 | 969.44 | 973.66 | 977.76 | 981.64 | – | –
303.15 K, x1 = 0.6005 | 968.59 | 973.37 | 977.9 | 982.31 | 986.54 | 990.65 | 994.54 | – | –
303.15 K, x1 = 0.6455 | 979.73 | 984.57 | 989.11 | 993.57 | 997.8 | 1001.97 | 1005.86 | – | –
303.15 K, x1 = 0.6931 | 991.23 | 996.02 | 1000.62 | 1005.08 | 1009.33 | 1013.44 | 1017.34 | – | –
303.15 K, x1 = 0.7502 | 1004.42 | 1009.26 | 1013.82 | 1018.28 | 1022.54 | 1026.71 | 1030.61 | – | –
303.15 K, x1 = 0.8009 | 1015.74 | 1020.59 | 1025.15 | 1029.62 | 1033.88 | 1038.07 | 1041.97 | – | –
303.15 K, x1 = 0.8505 | 1026.43 | 1031.28 | 1035.85 | 1040.32 | 1044.59 | 1048.83 | – | – | –
303.15 K, x1 = 0.9008 | 1036.88 | 1041.74 | 1046.31 | 1050.81 | 1055.12 | 1059.33 | – | – | –
303.15 K, x1 = 0.9255 | 1041.88 | 1046.76 | 1051.32 | 1055.83 | 1060.15 | 1064.37 | – | – | –
303.15 K, x1 = 0.9477 | 1046.34 | 1051.21 | 1055.79 | 1060.28 | 1064.6 | 1068.85 | – | – | –
303.15 K, x1 = 0.9735 | 1051.45 | 1056.32 | 1060.89 | 1065.37 | 1069.67 | 1073.92 | – | – | –
303.15 K, x1 = 1 | 1056.61 | 1061.47 | 1066.02 | 1070.49 | 1074.79 | 1078.99 | – | – | –
